Source: US20170307610A1, “COMPOUNDS THAT BIND DYSTROGLYCAN AND USES THEREOF” (OREGON HEALTH & SCIENCE UNIVERSITY, priority 2014, published 2017)

Key:
E3D1 MECs = experiment: Steady-state laminin internalization, flow cytometry; type: cell-based, mouse; details: steady-state, continuous Rhod-Ln
Description: Endocytic internalization of laminin was confirmed by multiple methods. Laminin was labeled with the pH-sensitive fluorescent label CypHer-5 (CyPher-Ln) to exclusively image internalized laminin in attached, living cells. The fluorophore CypHer-5 is non fluorescent at pH 7.4 and maximally fluorescent at pH 5.5, permitting fluorescence detection of laminin within intracellular acidic vesicles (pH 4.8-6.0). Following overnight incubation of MECs with CypHer-Ln, live cell imaging detected bright fluorescent vesicles moving rapidly within the cytoplasm (FIG. 3A). Intracellular laminin within the cytoplasm was also independently observed via removal of surface bound laminin followed by confocal imaging. MECs were exposed to 10 μg/ml Rhod-Ln for 18 hrs, trypsinized, washed with PBS/EDTA to remove surface-bound laminin, allowed to re-attach, and stained with the membrane marker FITC-concanavalin A (conA). […] This method of cell treatment permitted a quantitative, flow cytometry-based assay of laminin internalization. In this assay, cells incubated with Rhod-Ln were trypsinized, washed (as in FIG. 3B), and the remaining internal Rhod-Ln fluorescence quantified by flow cytometry. Using this assay, laminin internalization was confirmed in diverse cell types including in primary mammary epithelial cultures, mammary epithelial cell lines (E3D1, MEpG), […] fibroblasts (NIH 3T3 cells), primary astrocytes, and human cancer cell lines (breast and glioma).
To explore the dynamics of laminin internalization, steady-state time course experiments (measuring internalization in the continuous presence of labeled laminin) and pulsed time course experiments were performed. In pulsed time course experiments, the cells were exposed to exogenous Rhod-Ln at 4° C. to prevent internalization, excess unbound Rhod-Ln was washed away, and then cells were returned to 37° C. to allow synchronized internalization and trafficking to proceed. […] Following pulsed and synchronized laminin exposure, Rhod-Ln was again observed to internalize within 1 hour, but reached a maximum at 8 hours, after which the levels of internal laminin declined (FIG. 4A). After 24 hours, internal Rhod-Ln levels declined to ˜37% of the maxima, indicating degradation (MFI: 315±3.5 to 119±11.5). To determine if laminin was degraded using classical degradation pathways, pulsed time course experiments in the presence of leupeptin (lysosome inhibitor) or […] (proteasome inhibitor) were performed.
Laminin internalization could be mediated by either receptor-dependent or receptor independent mechanisms (e.g. pinocytosis). Steady-state laminin internalization was measured using flow cytometry in the presence of potential inhibitors and compared to internalization of 500S FITC-dextran, a molecule of similar molecular size to laminin known to be endocytosed by receptor-independent mechanisms. The specific inhibitor of dynamin, dynasore (Macia E et al, Dev Cell, 839-850 (2006); incorporated by reference herein), inhibited internalization of laminin by >75% (FIG. 6A). Under hypertonic sucrose, a condition known to inhibit receptor-mediated endocytosis (Heuser J E and Anderson R G, J Cell Biol 108, 389-400 (1989); incorporated by reference herein) laminin internalization was reduced by 65% (FIG. 6A). Addition of heparin, a molecule known to bind the laminin LG4-5 domain (Harrison D et al, J Biol Chem 282, 11573-11581 (2007); incorporated by reference herein), decreased laminin internalization by 69% relative to controls (FIG. 6A). […] Specifically, under steady state, laminin internalization was nearly linear throughout the 24 hour time course, whereas dextran internalization plateaued after 16 hrs.
Flow Cytometry—Cells were plated in 12 well plates at 200,000 cells/well. The following day, media was changed to serum-free media with or without 10 μg/ml rhodamine laminin or 40 μg/ml FITC-dextran (500S-Sigma-Aldrich Corp., St. Louis, Mo., USA). […]

LN18 human glioma cells = experiment: Laminin internalization in vector or LARGE expressing cells, flow cytometry; type: cell-based
Excerpt: (§1) Loss of DG's laminin binding function is a cause of some congenital muscular dystrophies (CMDs) and is a frequent defect in cancers including those of the breast, prostate, colon, and brain (Akhavan A et al, 2012 supra; Beltran-Valero de Bernabe et al, 2009 infra). This loss of function arises from altered glycosylation of DG and can be restored in many carcinoma and glioblastoma cells by expression of the enzyme LARGE, a glycosyltransferase that confers laminin-binding properties to DG (Akhavan et al., 2012; Beltran-Valero de Bernabe D et al, J Biol Chem 284, 11279-11284 (2009); incorporated by reference herein. Based on these facts in light of the disclosure herein, it was hypothesized that laminin internalization would be severely disrupted in cancer cells lacking DG activity and enhanced by the restoration of such activity. This hypothesis was tested in MDA-MB-231 human breast cancer cells and LN18 human glioma cells, both of which lack DG glycosylation and function. […] Expression of LARGE restored normal glycosylation of DG as determined by western blot analysis with IIH6 antibody (FIG. 10A, LARGE) and functional interaction of DG in the laminin assembly assay (FIG. 10B, LARGE). These cells were subsequently assayed for laminin internalization by flow cytometry.
(§2) Flow Cytometry—Cells were plated in 12 well plates at 200,000 cells/well. The following day, media was changed to serum-free media with or without 10 μg/ml rhodamine laminin or 40 μg/ml FITC-dextran (500S-Sigma-Aldrich Corp., St. Louis, Mo., USA). Unless otherwise indicated, cells were incubated 18-24 hrs, washed once with PBS, and cells trypsinized. Cells were washed in 5 ml cold PBS/1 mM EDTA, pelleted, and resuspended in 1 ml PBS/1 mM EDTA. Using a BD FACScan flow cytometer (BD Biosciences, San Jose, Calif., USA), 10,000 cells/well were counted, background fluorescence from the cell counts with no added laminin subtracted and the mean fluorescence intensity values reported. Graphed data are compiled from duplicate wells from each experiment with a minimum of three separate experiments, unless indicated otherwise.

[1] = test system: MDA-MB-231 human breast cancer cells; experiment: as above; type: cell-based
Excerpt: as §1, §2

For “Rhod-Ln: laminin-111 labeled with NHS-rhodamine; dystroglycan binding reagent”, the “time at which internalized laminin was measurable” value (E3D1 MECs) was ≤ 1 h, the “time to plateau of laminin internalization” value (E3D1 MECs) was > 30 h and the “increase in MFI of internalized laminin, LARGE vs vector” value (LN18 human glioma cells; LN18) was 10 fold. For the same substance, the “MFI of internalized laminin, LARGE expressing cells” value (LN18 human glioma cells; LN18 LARGE, n=3) was 1.49±0.049, the “MFI of internalized laminin, vector cells” value (LN18 human glioma cells; LN18 empty vector, n=3) was 0.145±0.155 and the “increase in MFI of internalized laminin, LARGE vs vector” value ([1]; MDA-MB-231) was 68 fold. For the same substance, the “MFI of internalized laminin, LARGE expressing cells” value ([1]; MDA-MB-231 LARGE, Rhod-Ln 18 hours, n=3) was 6.82 +/−0.241 and the “MFI of internalized laminin, vector cells” value ([1]; MDA-MB-231 empty vector, Rhod-Ln 18 hours, n=3) was 0.1+/−0.014.
